Data on two molecules can be found in patent US7432256B2, “Substitued imidazo [1,5-A][1,2,4]triazolo[1,5-D][1,4]benzodiazepine derivatives” (Hoffman-La Roche Inc., priority 2004, dated 2008).

In experiment [1] the target is T1, GABA A receptor a2b3g2 (hα2) (Homo sapiens, UniProt P18507+P47869).
T1 construct: expressed in transfected cells; host or cells: HEK293 (transient transfection), membranes
In words: [3H]flumazenil competition binding, GABA A a2b3g2 receptors in HEK293 cells. The protocol: (§1) Membrane Preparation and Binding Assay
(§2) The affinity of compounds at GABA A receptor subtypes was measured by competition for [3H]flumazenil (85 Ci/mmol; Roche) binding to HEK293 cells expressing rat (stably transfected) or human (transiently transfected) receptors of composition a1b3g2, a2b3g2, a3b3g2 and a5b3g2.
(§3) Cell pellets were suspended in Krebs-tris buffer (4.8 mM KCl, 1.2 mM CaCl2, 1.2 mM MgCl2, 120 mM NaCl, 15 mM Tris; pH 7.5; binding assay buffer), homogenized by polytron for ca. 20 sec on ice and centrifuged for 60 min at 4° C. (50000 g; Sorvall, rotor: SM24=20000 rpm). The cell pellets were resuspended in Krebs-tris buffer and homogenized by polytron for ca. 15 sec on ice. Protein was measured (Bradford method, Bio-Rad) and aliquots of 1 mL were prepared and stored at −80° C.
(§4) Radioligand binding assays were carried out in a volume of […] (96-well plates) which contained […] of cell memebranes, [3H]flumazenil at a concentration of 1 nM for a1, a2, a3 subunits and 0.5 nM for a5 subunits and the test compound in the range of 10-10-3×10^-6 M. Nonspecific binding was defined by 10^-5 M diazepam and typically represented less than 5% of the total binding. Assays were incubated to equilibrium for 1 hour at 4° C. and harvested onto GF/C uni-filters (Packard) by filtration using a Packard harvester and washing with ice-cold wash buffer (50 mM Tris; pH 7.5). After drying, filter-retained radioactivity was detected by liquid scintillation counting. Ki values were calculated using Excel-Fit (Microsoft) and are the means of two determinations.
(§5) The major important difference is change from SF9 to HEK293 cells (which are human transiently transfected).

In experiment [2] the target is T2, GABA A receptor a5b3g2 (hα5) (Homo sapiens, UniProt P18507+P31644).
T2 construct: expressed in transfected cells; host or cells: HEK293 (transient transfection), membranes
Nature of the experiment: [3H]flumazenil competition binding, GABA A a5b3g2 receptors in HEK293 cells. To be noted: [3H]flumazenil 0.5 nM; HEK293 membranes, human transiently transfected; mean of two determinations; read-out: Ki[nM] hα5. The protocol:
as §1, §2, §3
(§6) Assays were incubated to equilibrium for 1 hour at 4° C. and harvested onto GF/C uni-filters (Packard) by filtration using a Packard harvester and washing with ice-cold wash buffer (50 mM Tris; pH 7.5). After drying, filter-retained radioactivity was detected by liquid scintillation counting. Ki values were calculated using Excel-Fit (Microsoft) and are the means of two determinations.
as §5

Experiment [3] addresses T3, GABA A receptor a1b3g2 (hα1) (Homo sapiens, UniProt P14867+P18507).
T3 construct: expressed in transfected cells; host or cells: HEK293 (transient transfection), membranes
In words: [3H]flumazenil competition binding, GABA A a1b3g2 receptors in HEK293 cells. The protocol: as §1, §2, §3, §6, §5

Experiment [4] has as its target T4, GABA A receptor a3b3g2 (hα3) (Homo sapiens, UniProt P18507+P34903).
T4 construct: expressed in transfected cells; host or cells: HEK293 (transient transfection), membranes
Nature of the experiment: [3H]flumazenil competition binding, GABA A a3b3g2 receptors in HEK293 cells. As for the experimental part:
as §1, §2, §3, §4, §5

As for `C=Cc1ncn2c1Cn1ncnc1-c1cc(Cl)ccc1-2` [Example 20, 3-Chloro-10-vinyl-9H-imidazo[1,5-a][1,2,4]triazolo[1,5-d][1,4]benzodiazepine], the Ki in experiment [1] worked out at 33.6 nM; in experiment [2] it was 2.2 nM; in experiment [3] it was 35.8 nM; in experiment [4], 20.8 nM.

`CCc1ncn2c1Cn1ncnc1-c1cc(Cl)ccc1-2` [Example 10, 3-Chloro-10-ethyl-9H-imidazo[1,5-a][1,2,4]triazolo[1,5-d][1,4]benzodiazepine]: the Ki came out at 9.6 nM in experiment [1], 2.1 nM in experiment [2], 15.4 nM in experiment [3] and 7 nM in experiment [4].

Usually Ki stands for a measure of affinity in units of concentration, obtained from inhibition or displacement.
